According to publication PMC9556845 (Frontiers in Microbiology, 2022):
“Also recorded” adds a separate entry of the source. Like-named read-outs stand apart in the source and are kept apart here.

Experiments:
Type in all cases: biochemical
CD45 = biological target: T1, CD45 (Homo sapiens, UniProt P08575); assay: Inhibition of protein tyrosine phosphatase (PTPs) assay, pNPP substrate: CD45
T1 sequence (P08575 26-1306): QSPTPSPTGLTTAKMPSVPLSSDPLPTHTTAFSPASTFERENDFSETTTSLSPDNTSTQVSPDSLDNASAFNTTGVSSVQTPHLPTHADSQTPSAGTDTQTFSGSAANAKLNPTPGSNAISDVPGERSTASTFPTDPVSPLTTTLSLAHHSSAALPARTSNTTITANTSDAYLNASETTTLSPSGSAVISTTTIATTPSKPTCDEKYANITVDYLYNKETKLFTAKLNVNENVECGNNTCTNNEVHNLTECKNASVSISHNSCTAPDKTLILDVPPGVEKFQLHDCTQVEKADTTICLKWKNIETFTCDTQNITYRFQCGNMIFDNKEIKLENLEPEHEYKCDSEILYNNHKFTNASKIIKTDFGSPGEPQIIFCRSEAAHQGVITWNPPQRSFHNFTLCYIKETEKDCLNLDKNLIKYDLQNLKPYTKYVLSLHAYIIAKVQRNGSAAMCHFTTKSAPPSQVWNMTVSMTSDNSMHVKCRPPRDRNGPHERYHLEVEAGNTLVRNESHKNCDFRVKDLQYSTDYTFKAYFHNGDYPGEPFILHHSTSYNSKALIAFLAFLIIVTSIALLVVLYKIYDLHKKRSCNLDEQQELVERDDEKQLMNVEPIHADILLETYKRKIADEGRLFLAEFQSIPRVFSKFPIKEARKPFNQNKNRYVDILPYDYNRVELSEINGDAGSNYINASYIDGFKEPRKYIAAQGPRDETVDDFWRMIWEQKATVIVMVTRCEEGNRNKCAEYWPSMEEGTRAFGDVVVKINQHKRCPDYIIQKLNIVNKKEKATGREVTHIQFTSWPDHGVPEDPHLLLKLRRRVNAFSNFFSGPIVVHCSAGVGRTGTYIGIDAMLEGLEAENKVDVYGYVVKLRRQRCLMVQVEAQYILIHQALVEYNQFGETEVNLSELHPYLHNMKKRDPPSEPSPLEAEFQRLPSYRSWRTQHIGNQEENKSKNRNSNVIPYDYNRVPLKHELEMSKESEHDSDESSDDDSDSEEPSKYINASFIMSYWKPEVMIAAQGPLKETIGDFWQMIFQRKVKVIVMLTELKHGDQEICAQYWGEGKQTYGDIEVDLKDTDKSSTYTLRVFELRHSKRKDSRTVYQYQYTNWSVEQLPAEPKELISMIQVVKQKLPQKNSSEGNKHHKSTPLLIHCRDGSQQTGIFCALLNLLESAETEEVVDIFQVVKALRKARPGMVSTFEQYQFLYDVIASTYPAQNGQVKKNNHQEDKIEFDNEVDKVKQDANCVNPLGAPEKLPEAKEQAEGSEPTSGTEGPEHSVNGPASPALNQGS
Description: (§1) Protein tyrosine phosphatase (PTPs) plays an important role in many human threatening diseases, such as PTP1B, an effective target for the treatment of type II diabetes; CD45, an effective target for the treatment of leukemia; and TCPTP, a reliable target for the treatment of cancer involved in multiple signaling pathways ([Ruddraraju and Zhang, 2017]). Nitrophenyl phosphate (pNPP) was used as substrate to determine the enzyme inhibition test. Fifty microliter reaction buffer (pH 6.5) including 50 mM HEPES, 100 mM NaCl, 1 mM EDTA, and 1 mM dithiothreitol (DTT) and compounds was added to 96 well plates, and incubate at room temperature for 15 min. Further, 50 μl reaction buffer with 50 mM pNPP was added and incubated at 37°C for 60 min. Na3VO4 was used as positive control and DMSO as the negative control. The phosphatase activity was determined by absorbance measured at 405 nm. The test was repeated three times for each compound. The IC50 value was derived from three independent experiments.
(§2) Protein tyrosine phosphatase (PTPs) plays an important role in many human threatening diseases, such as PTP1B, an effective target for the treatment of type II diabetes; CD45, an effective target for the treatment of leukemia; and TCPTP, a reliable target for the treatment of cancer involved in multiple signaling pathways ([Zhang, 2003]; [Vintonyak et al., 2009]).

TCPTP = biological target: T2, TCPTP (Homo sapiens, UniProt P17706); assay: Inhibition of protein tyrosine phosphatase (PTPs) assay, pNPP substrate: TCPTP
T2 sequence (P17706 1-415): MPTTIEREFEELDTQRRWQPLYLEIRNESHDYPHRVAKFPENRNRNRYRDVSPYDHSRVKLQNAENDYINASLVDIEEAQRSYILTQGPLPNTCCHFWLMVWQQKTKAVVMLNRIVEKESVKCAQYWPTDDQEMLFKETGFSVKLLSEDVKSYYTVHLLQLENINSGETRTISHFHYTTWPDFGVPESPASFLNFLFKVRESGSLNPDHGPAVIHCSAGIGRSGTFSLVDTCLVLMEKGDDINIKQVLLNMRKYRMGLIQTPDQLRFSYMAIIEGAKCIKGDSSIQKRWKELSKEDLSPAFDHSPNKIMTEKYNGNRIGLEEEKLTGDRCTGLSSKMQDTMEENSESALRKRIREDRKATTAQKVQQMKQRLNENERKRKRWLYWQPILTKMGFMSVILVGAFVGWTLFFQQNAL
Description: as §1, §2

PTP1B = biological target: T3, PTP1B (Homo sapiens, UniProt P18031); assay: Inhibition of protein tyrosine phosphatase (PTPs) assay, pNPP substrate: PTP1B; conditions: for inhibitory activity against PTP1B (in words): in vitro, compared with Na3VO4
T3 sequence (P18031 1-435): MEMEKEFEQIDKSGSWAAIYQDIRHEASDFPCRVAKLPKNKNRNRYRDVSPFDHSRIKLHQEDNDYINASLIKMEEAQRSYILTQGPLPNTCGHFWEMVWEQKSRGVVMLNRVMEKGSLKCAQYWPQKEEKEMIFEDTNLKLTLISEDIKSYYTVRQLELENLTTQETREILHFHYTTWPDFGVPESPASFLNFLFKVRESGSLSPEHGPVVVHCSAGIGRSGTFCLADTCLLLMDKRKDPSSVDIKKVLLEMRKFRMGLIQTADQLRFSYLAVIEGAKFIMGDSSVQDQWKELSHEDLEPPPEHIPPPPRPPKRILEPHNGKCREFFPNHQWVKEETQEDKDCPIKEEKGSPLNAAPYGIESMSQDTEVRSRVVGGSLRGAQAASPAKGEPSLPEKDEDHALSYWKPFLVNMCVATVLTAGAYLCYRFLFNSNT
Procedure: Nitrophenyl phosphate (pNPP) was used as substrate to determine the enzyme inhibition test. Fifty microliter reaction buffer (pH 6.5) including 50 mM HEPES, 100 mM NaCl, 1 mM EDTA, and 1 mM dithiothreitol (DTT) and compounds was added to 96 well plates, and incubate at room temperature for 15 min. Further, 50 μl reaction buffer with 50 mM pNPP was added and incubated at 37°C for 60 min. […] The phosphatase activity was determined by absorbance measured at 405 nm. The test was repeated three times for each compound. The IC50 value was derived from three independent experiments.

IDH1 R132h = IDH1 R132h (Homo sapiens, UniProt O75874, R132H); assay: Isocitrate dehydrogenase inhibition assay (NADPH/α-KG, WST-8 readout); conditions: for IC50: room temperature 60 min, absorbance 450 nm, repeated three times
Procedure: DMSO was used to configure the compounds into different concentrations as test samples. 2 mm NADPH (3 μl) and 1 m α-Kg (0.1 μl) was added to IDH1 buffer (pH 6.5; 96 μl) solution as reaction substrate in the reaction system. Then, the test samples (2.0 μl), IDH1 R132h (0.4 μl), PMS (0.1 μl) and 15 mM WST-8 (1.0 μl) were successively added to the above mixture and reacted at room temperature for 60 min. AGI-5198 was used as positive control and DMSO as the negative control. The absorption peak of 450 nm was detected by microplate reader. The test was repeated three times for each test samples, and the IC50 was calculated by GraphPad Prism.
We have learned that isocitrate dehydrogenase (IDH) gene mutations are closely related to the occurrence and development of tumors ([Fujii et al., 2016]). IDH mutations mainly occur in malignant tumors such as glioma, acute myeloid leukemia, chondrosarcoma, and intrahepatic cholangiocarcinoma. IDH mutation ultimately promote the occurrence and development of tumors ([Gondim et al., 2019]). Therefore, inhibition of IDH1 R132h activity was screened using the above compounds. AGI-5198 was used as a positive control in this experiment with the IC50 value of 0.04 μg/ml.

[1] = pNPP substrate, pH 6.5, 37°C 60 min, absorbance 405 nm, three independent experiments, read-out: IC50 CD45 (converted)
[2] = pNPP substrate, pH 6.5, 37°C 60 min, absorbance 405 nm, three independent experiments, read-out: IC50 TCPTP
[3] = pNPP substrate, pH 6.5, 37°C 60 min, absorbance 405 nm, three independent experiments, read-out: IC50 PTP1B (converted)
[4] = pNPP substrate, pH 6.5, 37°C 60 min, absorbance 405 nm, three independent experiments

IDH1 R132h, sequence (O75874 whole entry R132H): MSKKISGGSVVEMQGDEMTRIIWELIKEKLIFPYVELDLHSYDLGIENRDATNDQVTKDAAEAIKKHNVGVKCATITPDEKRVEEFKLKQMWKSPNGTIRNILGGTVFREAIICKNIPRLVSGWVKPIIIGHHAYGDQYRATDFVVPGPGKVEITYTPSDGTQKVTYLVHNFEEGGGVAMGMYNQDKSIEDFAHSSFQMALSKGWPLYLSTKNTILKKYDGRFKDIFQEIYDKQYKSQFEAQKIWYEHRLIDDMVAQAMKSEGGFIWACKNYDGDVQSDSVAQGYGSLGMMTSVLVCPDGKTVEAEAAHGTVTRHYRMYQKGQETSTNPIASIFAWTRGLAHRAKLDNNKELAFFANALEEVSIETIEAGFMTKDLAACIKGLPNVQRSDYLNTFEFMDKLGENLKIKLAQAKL

Structure (SMILES) | IC50 (CD45; [1]) | IC50 (TCPTP; [2]) | IC50 (PTP1B; [3]) | IC50 (IDH1 R132h) | also measured
COc1cc(O)c2c(c1)C1=CC(O)C(O)CC1(C)OC2=O (centres unmarked) [Compound 12, 4′-epialtenuene] | > 342 µM | > 342 µM | 25.5 µM | – | inhibitory activity against PTP1B (in words) (PTP1B): inhibitory activity
COc1cc(O)cc(C2=C(C)C[C@@H](O)C2=O)c1 [Compound 14, (+)-nigrosporaol A] | > 427 µM | > 427 µM | 383 µM | – | –
Cc1cc(=O)c2c(C)cc(O)cc2o1 [Compound 17, 2,5-dimethyl-7-hydroxychromone] | 104 µM | > 526 µM | > 526 µM | – | –
COc1cc(O)c2c(=O)oc3cc(O)cc(C)c3c2c1 [Compound 7, alternariol 9-methyl ether] | – | – | – | – | IC50 (CD45): 72.8 µM; IC50 (TCPTP): 211 µM; IC50 (PTP1B): 139 µM
COc1cc(O)c2c(c1)C1(CC(O)C(O)C=C1C)OC2=O (centres unmarked) [Compound 1, Alternafurone A] | – | – | – | 101 µM | inhibitory activity against IDH1 R132h (in words) (IDH1 R132h): inhibitory activities
COc1cc(O)c2c(c1)C1=CC3(CC(O)C(=O)O3)C(O)CC1(C)OC2=O (centres unmarked) [Compound 3, Alternapyrone M] | – | – | – | > 147 µM | –
Cc1cc(O)cc2oc(=O)c3c(O)cc(O)cc3c12 [Compound 6, alternariol] | – | – | – | – | IC50 (CD45): 22.5 µM; inhibitory activity against CD45 (in words) (CD45; in vitro, compared with Na3VO4): definite inhibitory activity; IC50 (TCPTP): 30.2 µM; inhibitory activity against TCPTP (in words) (TCPTP; in vitro, compared with Na3VO4): definite inhibitory activity; IC50 (PTP1B): 61 µM
[Na+].[Na+].[Na+].[O]=[V]([O-])([O-])[O-] [Na3VO4, reference compound] | – | – | – | – | IC50 CD45 (CD45; [4]): 0.36 ± 0.09 µg/mL; IC50 TCPTP (TCPTP; [4]): 0.44 ± 0.11 µg/mL

More lines, main results first:

IC50 (CD45; [1]) | IC50 (TCPTP; [2]) | IC50 (PTP1B; [3]) | IC50 (IDH1 R132h) | Structure (SMILES) | also measured
> 342 µM | > 342 µM | 156 µM | – | COc1cc(O)c2c(c1)C1=C[C@H](O)[C@@H](O)C[C@]1(C)OC2=O [Compound 10, 5-hydroxyepialtenuene] | –
– | – | – | 36 µM | COC(=O)C1CC2(O)CC3(C)OC(=O)c4c(O)cc(OC)cc4C3=CC2(O)O1 (centres unmarked) [Compound 4, Alternapyrone N] | inhibitory activity against IDH1 R132h (in words) (IDH1 R132h): inhibitory activities
– | – | – | 66.4 µM | COc1cc(O)c2c(c1)C1(CC(O)C(O)C=C1C)OC2=O (centres unmarked) [Compound 2, Alternafurone B] | inhibitory activity against IDH1 R132h (in words) (IDH1 R132h): inhibitory activities
120 µM | > 485 µM | > 485 µM | – | Cc1cc(O)cc2oc(CO)cc(=O)c12 [Compound 19, 7-hydroxy-2-hydroxymethyl-5-methyl-4H-chromen-4-one] | –
> 342 µM | > 342 µM | 187 µM | – | COc1cc(O)c2c(c1)C1=C[C@@H](O)[C@@H](O)C[C@]1(C)OC2=O [Compound 11, 5′-epialtenuene] | –
– | – | – | 0.0865 µM | Cc1ccccc1C(C(=O)NC1CCCCC1)N(C(=O)Cn1ccnc1C)c1cccc(F)c1 (centres unmarked) [AGI-5198, reference compound] | –
> 340 µM | > 340 µM | 3.3 µM | – | COc1cc(O)c2c(c1)C1C[C@H](O)[C@@H](O)C[C@@]1(C)OC2=O (some centres unmarked) [Compound 9, 3-epidihydroaltenuene A] | inhibitory activity against PTP1B (in words) (PTP1B): specific and significant inhibition; also recorded: significant inhibitory activity
